Measured values as given in US8829034B2, “Compounds which modulate the CB2 receptor” (Boehringer Ingerlheim International GmbH, priority 2006, dated 2014).
Where two headings read alike, the source gives them in different places.

Molecular target: T1, human CB2R (Homo sapiens, UniProt P34972)
T1 construct: host or cells: CHO cells
Assay: CB2R mediated modulation of cAMP synthesis
Format: cell-based
Conditions: for agonistic activity: found through the use of the above described assays
Description: B. CB2R Mediated Modulation of cAMP Synthesis:
CHO cells expressing human CB2R (Euroscreen) were plated at a density of 5000 cells per well in 384 well plates and incubated overnight at 37° C. After removing the media, the cells were treated with test compounds diluted in stimulation buffer containing 1 mM IBMX, 0.25% BSA and 10 uM Forskolin. The assay was incubated for 30 minutes at 37° C. Cells were lysed and the cAMP concentration was measured using DiscoverX-XS cAMP kit, following the manufacturer's protocol. In this setting, agonists will decrease forskolin induced production of cAMP while inverse agonists will further increase forskolin induced production of cAMP. EC50 of agonists were calculated as follows. The maximal amount of cAMP produced by forskolin compared to the level of cAMP inhibited by 1 uM CP55940 is defined as 100%. The EC50 value of each test compound was determined as the concentration at which 50% of the forskolin-stimulated cAMP synthesis was inhibited. Data was analyzed using a four-parameter logistic model. (Model 205 of XLfit 4.0).

T1 sequence (P34972 whole entry): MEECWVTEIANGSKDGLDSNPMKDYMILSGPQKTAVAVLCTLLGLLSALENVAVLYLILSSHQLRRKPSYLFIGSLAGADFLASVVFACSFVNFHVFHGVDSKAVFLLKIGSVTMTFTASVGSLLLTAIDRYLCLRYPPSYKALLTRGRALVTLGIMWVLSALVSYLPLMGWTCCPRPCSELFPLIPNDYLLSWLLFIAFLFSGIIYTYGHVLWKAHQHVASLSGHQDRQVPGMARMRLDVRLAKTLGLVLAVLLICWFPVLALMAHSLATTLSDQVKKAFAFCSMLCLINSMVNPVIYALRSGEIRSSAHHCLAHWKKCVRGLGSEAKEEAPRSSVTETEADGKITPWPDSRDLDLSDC

SMILES | EC50 [nM] | agonistic activity | EC50 (CHO cells expressing human CB2R, inhibition of forskolin-stimulated cAMP synthesis, compounds having agonist activity, read-out: CB2 EC50) [nM]
Cn1nc(C(C)(C)C)cc1NC(=O)C(C)(C)S(=O)(=O)CC1CCC1 [N-(5-tert-Butyl-2-methyl-2H-pyrazol-3-yl)-2-cyclobutylmethanesulfonyl-2-methyl-propionamide] | 33 | agonistic activity | –
Cc1nc(NC(=O)C(C(C)C)S(=O)(=O)C(C)C)sc1C(C)(C)C (stereo not shown) [N-(5-tert-Butyl-4-methyl-thiazol-2-yl)-3-methyl-2-(propane-2-sulfonyl)-butyramide] | – | agonistic activity | –
CC(C)(C)c1cc(NC(=O)C(C)(C)S(=O)(=O)C2CCCC2)on1 [N-(3-tert-Butyl-isoxazol-5-yl)-2-cyclopentanesulfonyl-2-methyl-propionamide] | 0.9 | agonistic activity | –
CC(C)(C)c1cc(NC(=O)C2(S(=O)(=O)CC3CCOCC3)CCC2)on1 [1-(Tetrahydro-pyran-4-ylmethanesulfonyl)-cyclobutanecarboxylic acid (3-tert-butyl-isoxazol-5-yl)-amide] | 6.2 | agonistic activity | –
CC(C)S(=O)(=O)C(C)(C)C(=O)Nc1cnc2ccccc2c1 [2-Methyl-2-(propane-2-sulfonyl)-N-quinolin-3-yl-propionamide] | – | agonistic activity | –
CC(C)(C(=O)Nc1nc(C(F)(F)F)cs1)S(=O)(=O)C1CCCC1 [2-Cyclopentanesulfonyl-2-methyl-N-(4-trifluoromethyl-thiazol-2-yl)-propionamide] | – | agonistic activity | –
CC(C)S(=O)(=O)C(C)(C)C(=O)Nc1cc(C(C)(C)C)nn1C [N-(5-tert-Butyl-2-methyl-2H-pyrazol-3-yl)-2-methyl-2-(propane-2-sulfonyl)-propionamide] | – | agonistic activity | –
CC(C)S(=O)(=O)C(C)(C)C(=O)Nc1ccc(C(C)(C)C)cc1 [N-(4-tert-Butyl-phenyl)-2-methyl-2-(propane-2-sulfonyl)-propionamide] | – | agonistic activity | –
CCCS(=O)(=O)C(C)(C)C(=O)Nc1cc(C(F)(F)F)ccn1 [2-Methyl-2-(propane-1-sulfonyl)-N-(4-trifluoromethyl-pyridin-2-yl)-propionamide] | – | agonistic activity | –
CC(C)(C)c1cc(NC(=O)C(C)(C)S(=O)(=O)C2CCOCC2)on1 [N-(3-tert-Butyl-isoxazol-5-yl)-2-methyl-2-(tetrahydro-pyran-4-sulfonyl)-propionamide] | 0.1 | agonistic activity | –
CC(C)(C(=O)Nc1ccc(C(F)(F)F)cn1)S(=O)(=O)C1CCOCC1 [2-Methyl-2-(tetrahydro-pyran-4-sulfonyl)-N-(5-trifluoromethyl-pyridin-2-yl)-propionamide] | 62.4 | agonistic activity | –
CCCS(=O)(=O)C(C)(C)C(=O)Nc1nc2ccccc2s1 [N-Benzothiazol-2-yl-2-methyl-2-(propane-1-sulfonyl)-propionamide] | – | agonistic activity | –
CCCS(=O)(=O)C(C)(C)C(=O)Nc1nc2c(s1)CCCC2 [2-Methyl-2-(propane-1-sulfonyl)-N-(4,5,6,7-tetrahydro-benzothiazol-2-yl)-propionamide] | – | agonistic activity | –
CC(C)(C(=O)Nc1cccc(C(F)(F)F)n1)S(=O)(=O)CC1CCOCC1 [2-Methyl-2-(tetrahydro-pyran-4-ylmethanesulfonyl)-N-(6-trifluoromethyl-pyridin-2-yl)-propionamide] | – | agonistic activity | –
Cc1c(-c2ccccc2)nn(C)c1NC(=O)C(C)(C)S(=O)(=O)CC1CCOCC1 [N-(2,4-Dimethyl-5-phenyl-2H-pyrazol-3-yl)-2-methyl-2-(tetrahydro-pyran-4-ylmethanesulfonyl)-propionamide] | – | agonistic activity | –
CC(C)(C)c1cc(NC(=O)C(C)(C)S(=O)(=O)CC2CCCCC2)no1 [N-(5-tert-Butyl-isoxazol-3-yl)-2-cyclohexylmethanesulfonyl-2-methyl-propionamide] | 0.6 | agonistic activity | –
CC(C)(C(=O)Nc1ccc(C(F)(F)F)cn1)S(=O)(=O)C1CCCCC1 [2-Cyclohexanesulfonyl-2-methyl-N-(5-trifluoromethyl-pyridin-2-yl)-propionamide] | 11.8 | agonistic activity | –
CCC(C)S(=O)(=O)C(C)(C)C(=O)Nc1cc(C(C)(C)C)nn1C (stereo not shown) [2-(Butane-2-sulfonyl)-N-(5-tert-butyl-2-methyl-2H-pyrazol-3-yl)-2-methyl-propionamide] | – | agonistic activity | –
CCCc1cc(NC(=O)C(C)(C)S(=O)(=O)CC2CCOCC2)on1 [2-Methyl-N-(3-propyl-isoxazol-5-yl)-2-(tetrahydro-pyran-4-ylmethanesulfonyl)-propionamide] | – | agonistic activity | –
CC(C)(C(=O)Nc1nc(-c2ccc(F)cc2)cs1)S(=O)(=O)CC1CCOCC1 [N-[4-(4-Fluoro-phenyl)-thiazol-2-yl]-2-methyl-2-(tetrahydro-pyran-4-ylmethanesulfonyl)-propionamide] | 5.5 | agonistic activity | –
Cn1nc(C(C)(C)C)cc1NC(=O)C(C)(C)S(=O)(=O)C(C)(C)C [N-(5-tert-Butyl-2-methyl-2H-pyrazol-3-yl)-2-methyl-2-(2-methyl-propane-2-sulfonyl)-propionamide] | – | agonistic activity | –
CC(C)(C(=O)Nc1cccc(C(F)(F)F)c1)S(=O)(=O)CC1CCOCC1 [2-Methyl-2-(tetrahydro-pyran-4-ylmethanesulfonyl)-N-(3-trifluoromethyl-phenyl)-propionamide] | – | agonistic activity | –
CC(C)CCS(=O)(=O)C(C)(C)C(=O)Nc1cc(C(C)(C)C)no1 [N-(3-tert-Butyl-isoxazol-5-yl)-2-methyl-2-(3-methyl-butane-1-sulfonyl)-propionamide] | – | agonistic activity | 0.04
Cn1nc(C(C)(C)C)cc1NC(=O)C(C)(C)S(C)(=O)=O [N-(5-tert-Butyl-2-methyl-2H-pyrazol-3-yl)-2-methanesulfonyl-2-methyl-propionamide] | – | agonistic activity | –
CCCS(=O)(=O)C(C)(C)C(=O)Nc1cnc2ccccc2c1 [2-Methyl-2-(propane-1-sulfonyl)-N-quinolin-3-yl-propionamide] | – | agonistic activity | –
CCCC(CC)S(=O)(=O)C(C)(C)C(=O)Nc1cc(C(C)(C)C)nn1C (stereo not shown) [N-(5-tert-Butyl-2-methyl-2H-pyrazol-3-yl)-2-(hexane-3-sulfonyl)-2-methyl-propionamide] | – | agonistic activity | –
CCc1sc(NC(=O)C(C)(C)S(=O)(=O)CC2CCOCC2)nc1-c1ccccc1 [N-(5-Ethyl-4-phenyl-thiazol-2-yl)-2-methyl-2-(tetrahydro-pyran-4-ylmethanesulfonyl)-propionamide] | 2 | agonistic activity | –
CCCS(=O)(=O)C(C)(C)C(=O)Nc1ccc(C(F)(F)F)cn1 [2-Methyl-2-(propane-1-sulfonyl)-N-(5-trifluoromethyl-pyridin-2-yl)-propionamide] | – | agonistic activity | –
CCC(C)c1cc(NC(=O)C(C)(C)S(=O)(=O)CC2CCOCC2)on1 (stereo not shown) [N-(3-sec-Butyl-isoxazol-5-yl)-2-methyl-2-(tetrahydro-pyran-4-ylmethanesulfonyl)-propionamide] | 20 | agonistic activity | –
